Laboratory results as given in article PMC11799930, “Discovery of potent measles virus fusion inhibitor peptides via structure-guided derivatization” (RSC Medicinal Chemistry, 2025).
In brackets after ≈: the same amount, converted by molar mass. Entries after “also recorded” stand apart in the source; their conditions may differ. Read-outs that look alike come from different tables or passages of the source. Where a SMILES comes first, the peptide text is derived from it. [ ]: non-standard residue; d: D form. The star is where a group is joined. Cbz = O=C(OCc1ccccc1)*; AEEA = NCCOCCOCC(=O)O

Key:
MeV-EGFP [1] = settings: viral entry inhibition assay; for IC50 / IC90: Vero/hSLAM cells, MeV-EGFP; for IC50: triplicate; for IC90: calculated from Hill coefficient and IC50
Description: (§1) To evaluate how modifying the C-terminus of FIP affects the interactions of FIP and MeV-F, we synthesized three FIP derivatives, named FIP-G3A, FIP-G3a, and FIP-NH2 (Fig. 2a). The inhibitory activities of the derivatives were evaluated using a virus-mediated cell-to-cell fusion assay (Fig. 2b). In this assay, Vero cells stably expressing hSLAM (Vero/hSLAM cells)[21] were infected with EGFP-recombinant MeV (MeV-EGFP) for 1 h at 37 °C, then the medium containing MeV-EGFP was replaced with a medium containing each FIP derivative and incubated at 37 °C for 48 h. The inhibitory activity was assessed based on the size and area of the syncytia observed by fluorescence microscopy, albeit qualitatively. […] To more quantitatively compare the inhibitory activity of FIP and FIP-NH2 against MeV infection in cells, a viral entry inhibition assay was conducted using a serially diluted compound, and the IC50 and IC90 values of the compounds were determined. In this assay, Vero/hSLAM cells were infected with inhibitor-treated MeV-EGFP at 37 °C for 1 h. Subsequently, the supernatant was replaced with a medium containing 100 μM of FIP, and the cells were further incubated at 37 °C for 48 h. Finally, the number of virus-infected cells was quantified using fluorescence microscopy. […]
pfu/well and incubated with peptide solution in 10% FBS/DMEM containing 0–1% DMSO for 30 min at room temperature. Vero/hSLAM cells were then infected with the inhibitor-treated MeV-EGFP for 1 h at 37 °C. The supernatant, including the virus, was replaced with 100 µM FIP (Peptide Institute, Inc. cat#4092) solution in 0–1% DMSO in 10% FBS/DMEM, and EGFP-positive cells were counted under fluorescence microscopy (BZ-X710, keyence) after incubation for 48 h at 37 ℃. The entry inhibition rate was calculated as 100 − (the number of sample EGFP positive cells − the number of cell-only control EGFP positive cells) / (the number of viral control EGFP positive cells − the number of cell-only control EGFP positive cells) × 100. This experiment was performed in triplicate. IC50 values were calculated using parameters determined by fitting the plot to a four-parameter logistic regression model (Hill equation) implemented in Python (Matplotlib and SciPy libraries). The equation used was: y = d + (a – d) / (1 + (x / c)b). x, y, a, b, c, and d represent peptide concentration, fraction of infected cells, maximum response, Hill coefficient (degree of cooperativity), IC50, and minimum response, respectively. Curve fitting was performed using the curve_fit function from the SciPy library, and IC90 values were calculated using the derived Hill coefficient and IC50 values. […]
(BZ-X710, keyence) after incubation for 48 h at 37 ℃. […]

MeV-EGFP [2] = assay: Virus-mediated cell-to-cell fusion assay (syncytia in Vero/hSLAM cells infected with MeV-EGFP); assay type: cell-based, Measles virus; settings: 48 h, qualitative
Description: as §1
Virus-mediated cell-to-cell fusion assay. Vero/hSLAM cells were cultured in 96 well plates (Thermo scientific cat#167008) overnight at 37 ℃. Vero/hSLAM cells were then infected with MeV-EGFP (200 pfu / well) for 1 h. The supernatant, including the virus, was replaced with 10% FBS/DMEM with or without 1, 10, 100 µM FIP or a FIP derivative. The images of cell-to-cell fusion were captured by fluorescence microscopy (BZ-X710, keyence) after incubation for 48 h at 37 ℃.

MeV-F wild type = target: T1, MeV-F wild type (Measles virus, UniProt Q786F3); assay type: cell-based; settings: qualitative; for inhibition of syncytia formation: 24 h
T1 construct: wild-type full-length MeV-H (pCA7-ICH) and MeV-F; expressed in transfected cells; host or cells: Vero/hSLAM cells
Source text: To obtain new interactions, we designed and synthesized FIP-NH2 derivatives in which Gly residue is replaced with a D-amino acid residue shown in Fig. 3a (FIP-G3x-NH2, x = d, e, h, k, n, q, r, s, t). To avoid proteolytic degradation of the derivatized peptides, D-amino acid residues were adopted. Because FIP consists of hydrophobic structures, polar residues were recruited for replacing the Gly residue to avoid poor aqueous solubility of the resulting derivatives. The inhibitory activities of the synthesized derivatives were evaluated by cell-to-cell fusion assay. In this assay, each FIP derivative was added to the medium of Vero/hSLAM cells transiently expressing MeV-F, MeV-H, and EGFP, and the cells were incubated at 37 °C for 24 h. The cells were observed under a fluorescence microscope, and inhibition of the syncytia formation was qualitatively assessed based on the size and area of emitting fluorescence (Fig. 3b). We also synthesized and evaluated the reverse sequence of FIP, FIP-rev (Z-Gly-Phe-D-Phe-OH), and the enantiomer of FIP, FIP-enan (Z-Phe-D-Phe-Gly-OH), as negative controls.
Fig. 3 Chemical structures and cell-to-cell fusion assay of FIP and its derivatives using Vero/hSLAM cells expressing MeV-F and MeV-H. a) Chemical structures of FIP and its derivatives. b) A schematic illustration of cell-to-cell fusion assay. […] All the experiments were conducted in triplicate. […]
(BZ-X710, keyence) after incubation for 48 h at 37 ℃.
Cell-to-cell fusion assay using wild-type MeV-F plasmid. Vero/hSLAM cells in 96-well plate were transfected with 0.01 µg pCA7-ICH, 0.0375 µg pCA7-ICF and 0.3 µg pCA7 plasmid encoding EGFP (pCA7-EGFP) using VeroFect (0.695 µL, OZ Biosciences) in 10% FBS/DMEM when the confluency of the cells was about 90%. FIP or an FIP derivative in DMSO was added in each sample to 100 or 0.5 µM as the final […]
concentration. […]

physchem = assay type: physicochemical
[3] = 1 μM inhibitor in serum
MeV = tested on: MeV; set-up: method as in PMID 7414950; settings: plaque assay for MeV; cited from earlier work
in vitro = settings: bovine
E471S mutant of MeV-F = target: T2, E471S mutant of MeV-F (Measles virus, UniProt Q786F3, E471S); assay: Cell-to-cell fusion assay using MeV-F E471S mutant; assay type: cell-based; settings: Fig. 4e, qualitative
T2 construct: Full-length E471S MeV-F was amplified through PCR and site-directed mutagenesis; expressed in transfected cells; host or cells: Vero cells per the methods
Source text: To identify the plausible new interactions formed between FIP-G3r-NH2 and MeV-F, we conducted docking simulations using Autodock Vina.[22,23] First, we conducted a docking simulation of FIP and MeV-F to assess the reliability of the docking simulations (Fig. 4a). […] We then conducted a docking simulation of FIP-G3r-NH2 and MeV-F (Fig. 4c). We found a docking pose in which the binding conformation of the main chain and the aromatic ring of FIP-G3r-NH2 is similar to that of FIP (Fig. 4d). […] It should be noted that the MeV-F E471S mutant protein was synthetically produced for this experiment, and, to our knowledge, this mutant has not been reported as a natural variant. […]
pfu/well and incubated with peptide solution in 10% FBS/DMEM containing 0–1% DMSO for 30 min at room temperature. […] The supernatant, including the virus, was replaced with 100 µM FIP (Peptide Institute, Inc. cat#4092) solution in 0–1% DMSO in 10% FBS/DMEM, and EGFP-positive cells were counted under fluorescence microscopy (BZ-X710, keyence) after incubation for 48 h at 37 ℃. The entry inhibition rate was calculated as 100 − (the number of sample EGFP positive cells − the number of cell-only control EGFP positive cells) / (the number of viral control EGFP positive cells − the number of cell-only control EGFP positive cells) × 100. […]

[4] = target: MeV-F (prefusion-stabilized ectodomain trimer); assay: Surface plasmon resonance (SPR) binding to MeV-F; set-up: species or system Measles virus; settings: peptides (EG-K derivatives) immobilized on sensor chip, MeV-F as analyte, 25 °C

O=C(O)CNC(=O)[C@H](Cc1ccccc1)NC(=O)[C@@H](Cc1ccccc1)NC(=O)OCc1ccccc1 [FIP, Z-D-Phe-Phe-Gly, reference compound] (Cbz-[dF]-Phe-Gly-OH)
IC50 (MeV-EGFP [1]): 1300 nM
IC90 (MeV-EGFP [1]): 12000 nM
inhibition of syncytia formation (MeV-EGFP [2]; 1 μM): inhibited fusion only weakly
inhibition of syncytia formation (MeV-EGFP [2]; 10 μM): strongly inhibited syncytia formation
inhibition of syncytia formation (MeV-EGFP [2]; 100 μM): strongly inhibited syncytia formation
inhibition of syncytia formation (MeV-F wild type; 0.5 μM): weakly inhibited syncytia formation
inhibition of syncytia formation (MeV-F wild type; 100 μM): strongly inhibited syncytia formation
solubility (physchem): 98 ± 1 µM (≈ 49.3 µg/mL)
proteolytic stability in serum [3]: high proteolytic stability
IC50 (MeV): 200 nM
half-life at 1 μM (in vitro): > 24 h

N=C(N)NCCC[C@@H](NC(=O)[C@H](Cc1ccccc1)NC(=O)[C@@H](Cc1ccccc1)NC(=O)OCc1ccccc1)C(N)=O [FIP-G3r-NH2] (Cbz-[dF]-Phe-[dR]-NH2)
IC50 (MeV-EGFP [1]): 210 nM
IC90 (MeV-EGFP [1]): 1800 nM
fold higher inhibitory activity than FIP (IC50) (MeV-EGFP [1]; relative to FIP): about six-fold
inhibition of syncytia formation (MeV-F wild type; 0.5 μM): higher inhibitory activity than FIP-NH2; also recorded: completely inhibited the syncytia formation
membrane fusion inhibitory activity (MeV-F wild type; MeV-F wild type (WT), Fig. 4e): higher membrane fusion inhibitory activity than FIP
membrane fusion inhibitory activity (E471S mutant of MeV-F): dropped to the same level as FIP
Kd [4]: 6.6 nM
solubility (physchem): 83 ± 4 µM (≈ 49.9 µg/mL)
proteolytic stability in serum [3]: high proteolytic stability
half-life at 1 μM (in vitro): > 24 h

N=C(N)NCCC[C@@H](NC(=O)[C@H](Cc1ccccc1)NC(=O)[C@@H](Cc1ccccc1)NC(=O)OCc1ccccc1)C(=O)NCCOCCOCC(=O)N[C@@H](CCCCN)C(N)=O [FIP-G3r-NH-EG-K] (Cbz-[dF]F[dR][AEEA]K-NH2)
Kd [4]: 6.6 nM

NC(=O)CNC(=O)[C@H](Cc1ccccc1)NC(=O)[C@@H](Cc1ccccc1)NC(=O)OCc1ccccc1 [FIP-NH2] (Cbz-[dF]-Phe-Gly-NH2)
IC50 (MeV-EGFP [1]): 510 nM
IC90 (MeV-EGFP [1]): 3600 nM
inhibition of syncytia formation (MeV-EGFP [2]; 1 μM): a little higher inhibitory activity than FIP
inhibitory activity against MeV-induced cell fusion compared with FIP (MeV-EGFP [2]; 100, 10 or 1 μM): did not decrease the inhibitory activity
Kd [4]: 81 nM

NCCCC[C@H](NC(=O)COCCOCCNC(=O)CNC(=O)[C@H](Cc1ccccc1)NC(=O)[C@@H](Cc1ccccc1)NC(=O)OCc1ccccc1)C(N)=O [FIP-NH-EG-K] (Cbz-[dF]FG[AEEA]K-NH2)
Kd [4]: 81 nM

Cbz-Gly-Phe-[dF]-OH [FIP-rev]
inhibition of syncytia formation (MeV-F wild type; 100 μM): lower inhibitory activity than FIP

Cbz-Phe-[dF]-Gly-OH [FIP-enan]
inhibition of syncytia formation (MeV-F wild type; 100 μM): lower inhibitory activity than FIP
